The values below come from patent US12532882B2, “Biocide composition and methods of use” (priority 2017, dated 2026).

The subject of one data set is seeds. The data set is described as follows: Seed germination in soils saturated with product. The conditions noted are these: soils saturated with 2% solution.
The subject of the next data set is clubroot spores. The data set is described as follows: Clubroot resting spore mortality by Evans blue staining (Example 2). The conditions noted are these: positive control, 2% concentration.
Data set [1] relates to clubroot resting spores. The data set is described as follows: Clubroot resting spore mortality by Evans blue staining (Example 5). The conditions noted are these: all concentrations above 1.5%.
Data set [2] deals with clubroot resting spores. Briefly: Clubroot resting spore mortality by Evans blue staining, separate test with AES-100. Particulars: all concentrations above 1.5%.

As to `OCl` [sodium hypochlorite], the seed germination result with seeds is “no seeds germinated”. The compound also showed a resting spore mortality in the data set on clubroot spores of 100%. For the same compound, the “mortality of clubroot resting spores” value with clubroot resting spores [1] and with clubroot resting spores [2] was 100% in each case.
